Where two headings read alike, the source gives them in different places.
Legend:
P-gp = assay: Rho-123 transport assay (flow cytometry) for P-gp activity with RT and NF-κB inhibitor SN50; format: cell-based; settings: Huh-7, 20 μM Rho-123
Procedure: In brief, Huh-7 cells were seeded in a 6-well plate. RT0Gy, RT2Gy, or RT9Gy was applied. At 1 hr or 24 hr after RT, ketoconazole (a P-gp inhibitor), digoxin (a P-gp substrate) and DMSO were added to the corresponding wells and incubated at 37 °C. The existing medium was replaced with 20 μM Rho-123 solution and incubated for 1 hr. Then, the cells were analyzed (10000 cells/sample) to measure Rho-123 accumulation with a FACSCalibur flow cytometer (excitation (Ex) = 515 nm, emission (Em) = 545 nm; Becton Dickinson, San Jose, CA, USA). The data were analyzed with CellQuest software (Becton Dickinson, San Jose, CA, USA).
The peptide SN50 inhibits nuclear translocation of NF-κB. SN50M was used as a negative control. In brief, Huh-7 cells were pretreated with 20 μM SN50 or SN50M (Enzo Life Sciences, Inc., Farmingdale, NY, USA) for 1 hr and were then irradiated. At 1 hr or 24 hr after RT, the existing medium was replaced with 20 μM Rho-123 and incubated for 1 hr. The cells were analyzed (10000 cells/sample) to measure Rho-123 accumulation with a FACSCalibur flow cytometer (Ex = 515 nm, Em = 545 nm; Becton Dickinson, San Jose, CA, USA). The data were analyzed with CellQuest software (Becton Dickinson, San Jose, CA, USA).

[1] = Biliary excretion pharmacokinetics of Rho-123 after RT in freely moving rats; format: in vivo, Sprague-Dawley rats; settings: for AUC(0-t) / Cmax / MRT / Tmax / clearance / half-life: Sprague-Dawley, rat, bile, iv, 0.2 mg/kg, biliary excretion; for half-life: read-out: t½
Procedure: A freely moving rat model was designed for the current study[21] (Fig. 1A). Experimental rats were anesthetized with 1 g/mL urethane and 0.1 g/mL α-chloralose (1 mL/kg by intraperitoneal [i.p.] injection), and polyethylene tubes were then implanted in the right jugular vein for intravenous (i.v.) fluid administration. The right jugular vein was catheterized for blood sampling. The catheter traversed the subcutaneous tissue and was fixed in the dorsal neck region. After surgery, the rats were placed in an experimental cage and allowed to recover for 1 day. During the recovery period, the rats were kept warm under a light. Then, the rats were anesthetized and immobilized on a board while undergoing CT for localization of the whole liver (conventional technique, Fig. 1B) or a central area of 1.5 × 1.5 cm (SBRT technique, Fig. 1C). […] An equal volume of methanol was added to 100-μL aliquots of bile and plasma sample specimens for deproteinization. The mixture was vortexed for 15 s and centrifuged at 12000 × g for 10 min.

[2] = RT2Gy, Rho-123 10 min later (concurrent)
[3] = RT2Gy, Rho-123 24 hr later (sequential)
[4] = RT9Gy, Rho-123 10 min later (concurrent)
[5] = RT9Gy, Rho-123 24 hr later (sequential)
[6] = sham RT, Rho-123 0.2 mg/kg i.v., rats

SMILES: COC(=O)c1ccccc1-c1c2ccc(=N)cc-2oc2cc(N)ccc12 [Rho-123, rhodamine 123]
- Rho-123 intensity (P-gp; concurrent RT2Gy): 99.2 ± 2.2
- Rho-123 intensity (P-gp; concurrent RT9Gy): 93.6 ± 3.4
- Rho-123 intensity (P-gp; sequential RT2Gy): 103.8 ± 0.6
- Rho-123 intensity (P-gp; sequential RT9Gy): 118.4 ± 0.9
- AUC(0-t) ([1]; RT2Gy, Rho-123 0.2 mg/kg i.v. 10 min later (concurrent)): 3170 ng·h/mL
- AUC(0-t) ([1]; RT2Gy, Rho-123 0.2 mg/kg i.v. 24 hr later (sequential)): 1920 ng·h/mL
- Cmax [1, 2]: 3560 ± 1930 ng/mL
- MRT [1, 2]: 66 min
- Tmax [1, 2]: 11 min
- clearance [1, 2]: 0.92 ± 0.23 mL/min/kg
- half-life [1, 2]: 46 ± 13 min
- Cmax [1, 3]: 2240 ± 570 ng/mL
- MRT [1, 3]: 47 min
- Tmax [1, 3]: 9 min
- clearance [1, 3]: 1.73 ± 0.61 mL/min/kg
- half-life [1, 3]: 32 ± 8 min
- AUC(0-t) ([1]; RT9Gy, Rho-123 0.2 mg/kg i.v. 10 min later (concurrent)): 2710 ng·h/mL
- AUC(0-t) ([1]; RT9Gy, Rho-123 0.2 mg/kg i.v. 24 hr later (sequential)): 1660 ng·h/mL
- Cmax [1, 4]: 2860 ± 830 ng/mL
- MRT [1, 4]: 66 min
- Tmax [1, 4]: 11 min
- clearance [1, 4]: 1.07 ± 0.33 mL/min/kg
- half-life [1, 4]: 43 ± 6 min
- Cmax [1, 5]: 2070 ± 750 ng/mL
- MRT [1, 5]: 50 min
- Tmax [1, 5]: 13 min
- clearance [1, 5]: 1.91 ± 0.56 mL/min/kg
- half-life [1, 5]: 34 ± 9 min
- AUC(0-t) [1, 6]: 1880 ng·h/mL
- Cmax [1, 6]: 2010 ± 600 ng/mL
- MRT [1, 6]: 61 min
- Tmax [1, 6]: 14 min
- clearance [1, 6]: 1.56 ± 0.3 mL/min/kg
- half-life [1, 6]: 42 ± 13 min
- Increase in AUC of biliary excretion ([1]; concurrent RT2Gy compared to sham group): 69.0%
- Increase in AUC of biliary excretion ([1]; concurrent RT9Gy compared to sham group): 44.2%
- Decrease in AUC of biliary excretion ([1]; sequential RT2Gy compared to concurrent RT2Gy): 39.5%
- Decrease in AUC of biliary excretion ([1]; sequential RT9Gy compared to concurrent RT9Gy): 38.6%
